Data from patent US5710015A, “cDNA cloning of inositol monophosphatase” (Merck, Sharp & Dohme, Ltd., priority 1992, dated 1998).
Read-outs that look alike come from different tables or passages of the source.

Assays:
[1] = molecular target: T1, bovine inositol monophosphatase (bovine enzyme, source not specified) (Bos taurus, UniProt P20456); test: Inhibition of bovine inositol monophosphatase (parallel comparison); format: biochemical; settings: parallel experiment
T1 sequence (P20456 1-277): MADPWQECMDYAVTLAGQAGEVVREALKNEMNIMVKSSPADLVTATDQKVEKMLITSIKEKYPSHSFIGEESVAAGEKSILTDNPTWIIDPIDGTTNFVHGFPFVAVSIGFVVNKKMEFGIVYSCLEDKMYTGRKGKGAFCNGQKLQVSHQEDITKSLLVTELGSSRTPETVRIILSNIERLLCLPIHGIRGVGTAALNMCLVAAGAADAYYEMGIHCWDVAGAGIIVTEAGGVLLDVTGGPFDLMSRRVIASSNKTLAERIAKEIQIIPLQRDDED
Protocol: (§1) All comparisons are from data obtained in parallel experiments carried out in this study.
One unit of enzyme activity represents 1 μmol of substrate hydrolysed/min, at 37° C. […] Kinetic analyses were performed as described previously [Gee et al., supra].

[2] = molecular target: T2, recombinant human brain inositol monophosphatase (IMP), SEQ. ID NO. 2, expressed in E. coli BL21-DE3 (Homo sapiens, UniProt P29218); test: Kinetics and inhibition of recombinant human inositol monophosphatase ([14C]inositol release from DL-Ins(1)P)
T2 sequence (P29218 1-277): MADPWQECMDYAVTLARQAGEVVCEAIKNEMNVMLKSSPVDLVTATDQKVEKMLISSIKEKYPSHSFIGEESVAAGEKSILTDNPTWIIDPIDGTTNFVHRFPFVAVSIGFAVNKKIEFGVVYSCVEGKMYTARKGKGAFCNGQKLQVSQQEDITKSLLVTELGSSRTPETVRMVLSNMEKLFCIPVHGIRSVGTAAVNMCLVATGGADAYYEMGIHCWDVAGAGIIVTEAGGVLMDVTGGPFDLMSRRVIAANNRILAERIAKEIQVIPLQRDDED
Protocol: Initial rates determined with several substrate concentrations were fitted to a Michaelis-Menten expression by non-linear least-squares regression analysis. […] Bovine brain values are as reported in Gee et al., supra, but confirmed here.
as §1
One unit of enzyme activity represents 1 μmol of substrate hydrolysed/min, at 37° C. Protein concentrations were determined by the method of Bradford [Bradford, M., (1976), Anal. Biochem., 72, pp. 248-252]. Kinetic analyses were performed as described previously [Gee et al., supra].

[3] = molecular target: T3, native bovine brain inositol monophosphatase (Bos taurus, UniProt P20456); settings: bovine brain enzyme, as reported in Gee et al., but confirmed here, cited from earlier work
T3 construct: both the native and recombinant bovine enzymes; from tissue; host or cells: bovine brain
T3 sequence (P20456 1-277): T1 sequence (P20456 1-277)

[4] = substrate: O=P(O)(O)O[C@@H]1[C@H](O)[C@H](O)[C@@H](O)[C@H](O)[C@H]1O; test: purified protein, by the assay type; settings: mean ± S.E.M. (n=3)

Work on `O=P(O)(O)O[C@H]1CC[C@H](O)C[C@H]1O` [1S-phosphoryloxy-2R,4S-dihydroxycyclohexane] yielded a Ki ([1]; competitive inhibitor, read-out: apparent Ki) of 1.1 µM and a Ki [2] of 2.7 µM.

For `O=P(O)(O)O[C@@H]1[C@H](O)[C@H](O)[C@@H](O)[C@H](O)[C@H]1O` (relative stereo) [DL-Ins(1)P], the Vmax ([3]; substrate DL-Ins(1)P) is listed as 13.3 ± 0.9 μmol/min per mg of protein and the Km ([3]; read-out: Km for DL-Ins(1)P) is listed as 160 ± 20 µM.

Work on `O=P(O)(O)O` [Pi] yielded a Ki ([1]; read-out: Ki (Pi)) of 500 µM and a Ki ([2]; read-out: Ki (Pi), competitive inhibition, recombinant human IMP) of 140 µM.

B1: recombinant human brain inositol monophosphatase (IMP), SEQ. ID NO. 2, expressed in E. coli BL21-DE3 (Homo sapiens) (protein)
chain: T2 sequence (P29218 1-277)
For B1, the Km ([4]; other: human recombinant enzyme, 37° C.) was 75 ± 3 µM.

B2: native human platelet-derived inositol monophosphatase (Homo sapiens) (protein)
chain: T2 sequence (P29218 1-277)
In the case of B2, the Km ([4]; other: human platelet enzyme, 37.0 °C) is reported as 108 ± 3 µM.

B3: recombinant bovine inositol monophosphatase (Bos taurus) (protein)
chain: T1 sequence (P20456 1-277)
With B3 the Km ([4]; other: bovine recombinant enzyme, 37.0 °C) was 120 ± 7 µM.
